According to patent US20160084820A1, “METHODS OF TREATING OR PREVENTING PERIODONTITIS AND DISEASES ASSOCIATED WITH PERIODONTITIS” (priority 2010, published 2016):

Experiments:
[1] = tested on: lipid rafts (GM1 ganglioside); test: FRET of TLR2, C5aR, CXCR4 with GM1 lipid raft marker; type: cell-based, mouse; details: MCD 10 mM for 30 min
Description: Upon stimulation for 10 min at 37° C. with P. gingivalis, mouse macrophages were labeled with a mixture of Cy3-conjugated (donor) and Cy5-conjugated (acceptor) antibodies, as indicated in FIG. 4I. In additional experiments shown in FIG. 4I, FITC-labeled P. gingivalis was used as donor and TRITC-labeled receptors served as acceptors. The cells were washed and fixed, and energy transfer between various donor-acceptor pairs was calculated from the increase in donor fluorescence after acceptor photobleaching (REF 9, 14). […] The conjugation of antibodies to Cy3 or Cy5 was performed using kits from Amersham Biosciences.
Supplemental experiments also examined the association of TLR2, C5aR, and CXCR4 with GM1 (lipid raft marker) in P. gingivalis-stimulated macrophages (FIG. 10). Mouse macrophages were pretreated (or not) with methyl-β-cyclodextrin (MCD; 10 mM for 30 min) and then stimulated for 10 min with P. gingivalis (Pg; MOI=10:1) or medium only (med). Fluorescence resonance energy transfer (FRET) between TLR2, C5aR, CXCR4, TLR5, or MHC Class I (Cy3-labeled) and the GM1 ganglioside (Cy5-labeled) was measured from the increase in donor (Cy3) fluorescence after acceptor (Cy5) photobleaching. TLR5 and MHC Class I served as negative controls. […] As expected, max FRET values (38±1.2) were not affected by the cell activation status (med vs. Pg) or the use or not of MCD.

[2] = tested on: mouse peritoneal macrophages; test: P. gingivalis phagocytosis and receptor expression by flow cytometry; type: cell-based; details: C5a 50 nM or C3a 200 nM, 30-min incubation
Description: First, experiments were performed to determine the effect of C5a (50 nM) or C3a (200 nM) on P. gingivalis phagocytosis by unprimed or IFN-γ-primed mouse peritoneal macrophages (FIG. 6A). The phagocytic index was calculated following a 30-min incubation using the following formula: % positive cells for fluorescently labeled P. gingivalis×MFI/100 (extracellular fluorescence was quenched prior to flow cytometry). Mouse macrophages were incubated at 37° C. for 30 min (B) or 24 hours (C) with medium, C5a (50 nM) only, or P. gingivalis (MOI=10:1) with or without C5a (50 nM). The expression levels of the indicated receptors, which coordinately mediate P. gingivalis uptake, were determined by flow cytometry after cell staining with appropriate fluorescently labeled antibodies (FIGS. 6B and 6C). The 30-min time point was examined to determine possible induced surface expression of preformed receptors from intracellular pools. […] Mouse-specific mAbs to TLR2 (clone 6C2), TLR1 (TR23), CD14 (Sa2-8), CD11b (M1/70), and CD18 (M18/2) were obtained from e-Bioscience.

[3] = tested on: phagocytosed P. gingivalis in mouse peritoneal macrophages; type: cell-based, P. gingivalis ATCC 33277
Description: The viability of phagocytosed P. gingivalis was monitored by an antibiotic protection-based intracellular survival assay, as previously described (Wang et al., 2007, J. Immunol., 179:2349-58). Briefly, mouse peritoneal macrophages were allowed to phagocytose P. gingivalis (MOI=10:1; 5×10^6 bacteria and 5×10^5 cells) for […] at 37° C. This was followed by washing to remove extracellular nonadherent bacteria and 1-hour treatment with antibiotics (300 μg/ml gentamicin and 200 μg/ml metronidazole) to eliminate residual or extracellular adherent bacteria. The macrophages were subsequently cultured overnight (for a total of 24 hours) or for 48 hours Immediately after, the macrophages were washed and lysed in sterile distilled water, and viable counts of internalized P. gingivalis were determined by plating serial dilutions of macrophage lysates on blood agar plates subjected to anaerobic culture.
The viability of phagocytosed P. gingivalis was monitored by an antibiotic protection-based intracellular survival assay, as previously described (Wang et al., 2007, J. Immunol., 179:2349-58)). Briefly, mouse peritoneal macrophages were allowed to phagocytose P. gingivalis (at a MOI=10:1; 5×10^6 bacteria and 5×10^5 macrophages) for 30 min at 37° C. This was followed by washing to remove extracellular nonadherent bacteria and 1-hour treatment with antibiotics (300 μg/ml gentamicin and 200 μg/ml metronidazole) to eliminate residual or extracellular adherent bacteria. The macrophages were subsequently cultured overnight for a total of 24 hours Immediately after, the macrophages were washed and lysed in sterile distilled water and viable counts of internalized P. gingivalis were determined by plating serial dilutions of macrophage lysates on blood agar plates subjected to anaerobic culture.

[4] = tested on: P. gingivalis; test: Subcutaneous titanium-coil chamber model; type: in vivo, mouse; details: wild-type mice, 24 h post-infection
Description: Using the ‘chamber’ model, bacteria were injected into the lumen of a subcutaneously implanted titanium-coil chamber such that bacterial interactions with recruited inflammatory cells can be assessed accurately and quantitatively (Burns et al., 2006, J. Immunol., 177:8296-8300; Genco et al., 1991, Infect. Immun., 59:1255-63; and Graves et al., 2008, J. Clin. Periodontol., 35:89-105).

[5] = tested on: periodontal inflammatory responses; test: Oral Pg infection, gingival IL-1beta and TNF-alpha mRNA after local C5aRA microinjection; type: in vivo, mouse
Description: Experiments were performed to determine an effective dose of C5aRA (PMX-53) that inhibits periodontal inflammatory responses. Briefly, 0.1, 1, or 10 μg C5aRA (or a PBS control) were administered through 1-μl microinjections (using a 28.5-gauge MicroFine needle) on the mesial of the first molar and in the papillae between first and second and third molars, on both sides of the maxilla. These treatments were repeated five times at two day-intervals Immediately following each treatment, the mice were infected orally with Pg in 2% carboxymethylcellulose vehicle (or vehicle only). One week after the last infection, the gingiva were dissected and analyzed by real-time quantitative PCR for mRNA expression of IL-1beta and TNF-alpha (selected as the most typically involved in destructive periodontal inflammation).
Because the antagonist was applied before each Pg infection treatment, this approach was considered preventive. In addition, however, it was determined if C5aRA acts in a therapeutic way (i.e., applied after infection and inflammation occurs). […] The mice were euthanized three days after the last treatment.

[6] = tested on: P. gingivalis-induced cytokine production; details: C5aRA i.p. 25 pg/mouse; 5 h post-infection
Description: (§1) Induction of nitric oxide production was assessed by measuring the amount of NO2− (stable metabolite of nitric oxide) in stimulated culture supernatants using a Griess reaction-based assay kit (R&D Systems), as previously performed (Hajishengallis et al., 2008, PNAS USA, 105:13532-7). Levels of cAMP in activated cell extracts were measured using a cAMP enzyme immunoassay kit (Cayman Chemical) (Liang et al., 2007, J. Immunol., 178:4811-9). C5a-induced intracellular calcium mobilization was monitored in cells (4×10^6) loaded with 1 μM Indo 1-AM in the presence of 1 μM pluronic acid, as previously described (Ali et al., 1993, J. Biol. Chem., 268:24247-54). Calcium traces were recorded in a Perkin-Elmer fluorescence spectrometer (Model 650-19) with an excitation wavelength of 355 nm and an emission wavelength of 405 nm. Induction of cytokine production in activated cell culture supernatants or in the peritoneal fluid of infected mice was determined by ELISA using kits from eBioscience or Cell Sciences. C5a levels were measured by sandwich ELISA, employing a pair of capture and biotinylated anti-05a mAbs (BD Pharmingen), according to the manufacturer's protocol.
10-12 week-old mice were infected i.p. with P. gingivalis (5×10^7 CFU) and sampled by peritoneal lavage to measure production of cytokines and enumerate recovered CFU (following anaerobic growth on blood agar plates) (Hajishengallis et al., 2008, PNAS USA, 105:13532-7), as detailed in the respective figure description.
First, it was essential to determine whether C5aR signaling can regulate P. gingivalis-induced IL-12p70 production in vivo. For this purpose, wild-type mice were i.p.-administered C5aRA followed by i.p. challenge with P. gingivalis. Mice deficient in C5aR or TLR2 were similarly challenged with P. gingivalis, and all mice were sampled 5 h post-infection by peritoneal lavage.

[7] = tested on: IL-12p70 production; test: IL-12p70 induction in IFN-gamma-primed macrophages, ELISA; type: cell-based, mouse; details: C5aRA 1 μM
Description: as §1
Whether C5a inhibits P. gingivalis-induced IL-12p70 in peritoneal macrophages was investigated. Since macrophages are generally poor producers of IL-12p70 in vitro unless primed with IFN-gamma, macrophages used in these experiments were primed with IFN-gamma (0.1 μg/ml). […] The host TLR response against P. gingivalis is predominantly mediated by TLR2, both in vitro and in vivo. Therefore, whether C5a-mediated inhibition of P. gingivalis-induced IL-12p70 could involve a C5aR-TLR2 crosstalk additionally was examined.

[8] = tested on: P. gingivalis; test: I.p. challenge model: P. gingivalis CFU, NO2− and bacteremia; type: in vivo, mouse
From the text: All animal procedures were approved by the Institutional Animal Care and Use Committee and performed in compliance with established federal and state policies.

[9] = tested on: intracellular cAMP; test: cAMP enzyme immunoassay in P. gingivalis-stimulated macrophages; type: cell-based, mouse; details: C5aRA 1 μM; thapsigargin 1 μM; EGTA 5 mM; pertussis toxin 100 ng/ml; AMD3100 1 μg/ml; C5a 50 nM; 1 hour
[10] = 1 pg applied twice weekly, four times, starting 2 weeks after five oral infections
[11] = 1 μg C5aRA microinjection before each of five Pg infections, one week after last infection

Substance: methyl-β-cyclodextrin [MCD]
- FRET increase between receptors and GM1 in P. gingivalis-stimulated macrophages [1]: reversal of FRET increase

Substance: C3a: related anaphylatoxin C3a from R&D Systems
- P. gingivalis phagocytosis [2]: not significantly affected
- intracellular survival of P. gingivalis in macrophages (viable counts of internalized bacteria) ([3]; Pg MOI=10:1, C5a 50 nM or C3a 200 nM, 24 or 48 hours post-infection): not by the related anaphylatoxin C3a

Substance: acetylated phenylalanine-(ornithine-proline-(D)cyclohexylalanine-tryptophan-arginine) [C5aRA]
- Pg viable counts in chamber fluid [4]: reduced Pg viable counts
- induction of IL-1beta mRNA in gingiva, therapeutic [5, 10]: significantly reversed induction
- induction of TNF-alpha mRNA in gingiva, therapeutic [5, 10]: significantly reversed induction
- induction of IL-1beta mRNA in gingiva, preventive [5, 11]: highly effective in inhibiting induction
- induction of TNF-alpha mRNA in gingiva, preventive [5, 11]: highly effective in inhibiting induction
- efficacy of 1 μg dose compared with 10-fold higher dose ([5]; IL-1beta and TNF-alpha mRNA, preventive): not significantly different
- IFN-gamma level in peritoneal fluid vs PBS-treated wild-type controls [6]: significantly higher levels
- IL-12p70 level in peritoneal fluid vs PBS-treated wild-type controls [6]: significantly higher levels
- IL-23 level in peritoneal fluid vs PBS-treated wild-type controls [6]: significantly higher levels
- induction of IL-1beta production in peritoneal fluid [6]: inhibited
- induction of IL-6 production in peritoneal fluid [6]: inhibited
- induction of TNF-alpha production in peritoneal fluid [6]: inhibited
- KDP128-induced IL-12p70 in the absence of exogenously added C5a [7]: had no effect
- LPS-induced IL-12p70 without C5a ([7]; U0126 10 μM, wortmannin 100 nM): not seen
- P. gingivalis-induced IL-12p70 without exogenous C5a ([7]; U0126 10 μM, wortmannin 100 nM): significantly enhanced
- reversal of C5a inhibition of P. gingivalis- or LPS-induced IL-12p70 ([7]; U0126 10 μM, wortmannin 100 nM, C5a 50 nM): completely reversed
- reversal of the inhibitory effect of C5a^desArg on IL-12p70 ([7]; C5a^desArg 50 nM, A8^Δ71-73 1 μM, SB290157 5 μM): full reversal
- effect on C5a-protected P. gingivalis intracellular viability ([3]; pretreatment 1 μM C5aRA and/or 1 mM L-NAME or D-NAME, Pg with C5a 50 nM, 24 hours): counteracted the protective effect of C5a
- bacteremia (blood culture for P. gingivalis) ([8]; 24 hours post-infection): no bacteremia could be detected
- less P. gingivalis CFU in peritoneal lavage fluid compared to PBS control ([8]; C5aRA i.p. 25 μg/mouse, 24 h post-infection): about 2 log10 units
- reduction of P. gingivalis CFU in peritoneal lavage fluid vs control mice ([8]; C5aRA i.p. 1 mg/Kg body weight, 24 hours post-infection): > 95%
- nitric oxide production in peritoneal fluid relative to control mice ([8]; C5aRA i.p., 24 hours postinfection): elevated nitric oxide production
- effect on the synergistic C5a effect on P. gingivalis-induced cAMP [9]: totally abrogated
